Values quoted from earlier work in patent US8337856B2, “Methods of treatment using anti-ERBB antibody-maytansinoid conjugates” (Immunogen, Inc., priority 2000, dated 2012).

Settings: clinical trials discontinued

Compound: COc1cc2cc(c1Cl)N(C)C(=O)C[C@H](OC(=O)[C@H](C)N(C)C(C)=O)[C@]1(C)O[C@H]1[C@H](C)[C@@H]1C[C@@](O)(NC(=O)O1)[C@H](OC)/C=C/C=C(\C)C2 [maytansine, Maytansine]
- adverse effects in clinical trials: serious adverse effects on the central nervous system and gastrointestinal system
